# Entries after “also recorded” stand apart in the source; their conditions may differ.
# T1: rM3Ds (Rattus norvegicus, UniProt P08483, A177S/A238G/A489L/DEL261-437/DEL441-478/E258S/I253V/I483M/INS256[…]/K178L/K182A/K255R/K484R/K486H/L173F/L482A/M480V/R171S/R176Q/R179M/S481M/T174R/T181R/T257A/Y148C)
# T1 sequence (P08483 with tags, fused parts or gaps Y148C/R171S/L173F/T174R/R176Q/A177S/K178L/R179M/T181R/K182A/A238G/I253V/K255R/INS256[…]/T257A/E258S/DEL261-437/DEL441-478/M480V/S481M/L482A/I483M/K484R/K486H/A489L): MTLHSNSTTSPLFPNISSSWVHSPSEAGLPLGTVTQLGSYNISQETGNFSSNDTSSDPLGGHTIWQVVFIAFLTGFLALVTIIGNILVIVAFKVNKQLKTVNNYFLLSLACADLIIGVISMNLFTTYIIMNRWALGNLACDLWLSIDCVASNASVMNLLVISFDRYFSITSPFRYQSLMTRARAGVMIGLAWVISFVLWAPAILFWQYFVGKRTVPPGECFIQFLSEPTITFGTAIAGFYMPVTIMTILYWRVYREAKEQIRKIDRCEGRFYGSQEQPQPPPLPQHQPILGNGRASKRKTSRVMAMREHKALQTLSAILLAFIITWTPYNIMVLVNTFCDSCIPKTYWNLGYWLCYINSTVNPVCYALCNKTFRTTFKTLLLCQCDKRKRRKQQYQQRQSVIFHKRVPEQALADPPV
# B1: AAV8R: AAV8 capsid with N385D, insertion of SEQ ID NO: 31 at position 588 and TS to IN mutation; SEQ ID NO: 1 (protein)
# chain: MAADGYLPDWLEDNLSEGIREWWALKPGAPKPKANQQKQDDGRGLVLPGYKYLGPFNGLDKGEPVNAADAAALEHDKAYDQQLQAGDNPYLRYNHADAEFQERLQEDTSFGGNLGRAVFQAKKRVLEPLGLVEEGAKTAPGKKRPVEPSPQRSPDSSTGIGKKGQQPARKRLNFGQTGDSESVPDPQPLGEPPAAPSGVGPNTMAAGGGAPMADNNEGADGVGSSSGNWHCDSTWLGDRVITTSTRTWALPTYNNHLYKQISNGTSGGATNDNTYFGYSTPWGYFDFNRFHCHFSPRDWQRLINNNWGFRPKRLSFKLFNIQVKEVTQNEGTKTIANNLTSTIQVFTDSEYQLPYVLGSAHQGCLPPFPADVFMIPQYGYLTLNDGSQAVGRSSFYCLEYFPSQMLRTGNNFQFTYTFEDVPFHSSYAHSQSLDRLMNPLIDQYLYYLSRTQTTGGTANTQTLGFSQGGPNTMANQAKNWLPGPCYRQQRVSTTTGQNNNSNFAWTAGTKYHLNGRNSLANPGIAMATHKDDEERFFPSNGILIFGKQNAARDNADYSDVMLTSEEEIKTTNPVATEEYGIVADNLQRGNLADQDYTKTARQAATADVNSQGALPGMVWQNRDVYLQGPIWAKIPHTDGNFHPSPLMGGFGLKHPPPQILIKNTPVPADPPTTFNQSKLNSFITQYSTGQVSVEIEWELQKENSKRWNPEIQYTSNYYKSINVDFAVNTEGVYSEPRPIGTRYLTRNL
# B2: AAV8R12: AAV8R capsid mutant V183E + N411S, SEQ ID NO: 13 (protein)
# chain: MAADGYLPDWLEDNLSEGIREWWALKPGAPKPKANQQKQDDGRGLVLPGYKYLGPFNGLDKGEPVNAADAAALEHDKAYDQQLQAGDNPYLRYNHADAEFQERLQEDTSFGGNLGRAVFQAKKRVLEPLGLVEEGAKTAPGKKRPVEPSPQRSPDSSTGIGKKGQQPARKRLNFGQTGDSESEPDPQPLGEPPAAPSGVGPNTMAAGGGAPMADNNEGADGVGSSSGNWHCDSTWLGDRVITTSTRTWALPTYNNHLYKQISNGTSGGATNDNTYFGYSTPWGYFDFNRFHCHFSPRDWQRLINNNWGFRPKRLSFKLFNIQVKEVTQNEGTKTIANNLTSTIQVFTDSEYQLPYVLGSAHQGCLPPFPADVFMIPQYGYLTLNDGSQAVGRSSFYCLEYFPSQMLRTGNSFQFTYTFEDVPFHSSYAHSQSLDRLMNPLIDQYLYYLSRTQTTGGTANTQTLGFSQGGPNTMANQAKNWLPGPCYRQQRVSTTTGQNNNSNFAWTAGTKYHLNGRNSLANPGIAMATHKDDEERFFPSNGILIFGKQNAARDNADYSDVMLTSEEEIKTTNPVATEEYGIVADNLQRGNLADQDYTKTARQAATADVNSQGALPGMVWQNRDVYLQGPIWAKIPHTDGNFHPSPLMGGFGLKHPPPQILIKNTPVPADPPTTFNQSKLNSFITQYSTGQVSVEIEWELQKENSKRWNPEIQYTSNYYKSINVDFAVNTEGVYSEPRPIGTRYLTRN
# Columns and labels:
# rM3Ds = biological target: T1, rM3Ds; test: Electrophysiological recording in caudate/putamen of MPP+ lesioned macaques after CNO or DCZ; type: in vivo
# Protocol: Intriguingly, many of the symptoms were greatly reversed after systemic deschloroclozapine (DCZ) administration. DCZ is a potent brain-penetrable agonist for rM3Ds with reduced off-targeting binding compared to CNO, and was administered to activate the DREADD system in the macaque brain.
# Electrophysiological recording was performed through a recording chamber while the monkey was anesthetized. Neural responses were recorded by a 16-channel linear probe (Plexon Inc, Uprobe) driven by a mechanical microdrive (Alpha Omega, FlexMT). Signals were passed through a head stage (Plexon Inc, HST/16V-G20 LN) and then split and filtered between 300 Hz and 5 kHz to identify spiking activity with an amplifier system (Plexon Inc, OmniPlex). Detected spikes were then sorted by commercially available software (Plexon Inc, Offline Sorter) for further analysis. To quantify the effect of CNO/DCZ injection, neural activity was recorded for 60 minutes following CNO/DCZ injection. The response time-course for each channel was obtained by counting the spikes within every 10-minute window and then normalizing to the maximal.
# To determine the effect of CNO/DCZ injection on the direction of signal change, we performed Pearson correlation between neural responses and time using the ‘corr’ function in Matlab, which generates the correlation coefficient ‘r’ and significant level ‘p’. A neuron was considered to have “Increased” activity when r>0 and p<[…]; and considered to have “Decreased” activity when r<0 and p<0.05. Otherwise, neurons were considered to be “Unchanged” in their neural activities. The responses of all increased neurons were then averaged after being normalized by the maximal response (Crowe et al., 2014; Dai and Wang, 2018; Hirokawa et al., 2019) following CNO/DCZ injection, and then plotted as a function of time to generate the normalized population response.
# [1] = Motor-related behaviors in naïve macaques after DCZ; type: in vivo; conditions: DCZ 0.3 mg/kg
# Protocol: The locomotion tests for monkeys were conducted in a custom-made observation cage (100 cm×100 cm×100 cm). The top and front of the cage were made of toughened glass in order to gain a clear view for behavioral recording. Monkeys were habituated to the observation cage by placing them inside for 30 minutes on three separate days.
# [2] = CSF concentration of DCZ by LC-MS; type: in vivo, macaques; conditions: 24 hours after drug infusion, 0.3 mg/kg i.m.
# Excerpt: One month of washout was allowed before administration of DCZ.
# [3] = in vivo
# [4] = test system: parkinsonian macaque model (MPP+); test: Parkinsonian symptoms in MPP+ macaques (PD score, locomotion, EMG tremor, motor skill, dyskinesia score)
# Protocol: Parkinsonian conditions in macaque monkeys were established by unilaterally injecting 1-Methyl-4-phenylpyridinium (MPP+) into the SNc (FIG. 14). […] Drug injections were performed in five sites covering the whole SNc. A total volume of 10 ul MPP+ was injected into SNc at a speed of 50 nL/min. Monkeys were continuously monitored by veterinarians after lesion.
# Two experienced observers blindly evaluated parkinsonian symptoms of the monkeys three days per week throughout the observation periods. Parkinsonian symptoms were quantified according to the well-established Kurlan scale (Part I. Parkinsonian features), a widely used scale to quantify PD symptoms in old world monkeys. A score of zero indicates a normal monkey, whereas a maximum score of 29 indicates an animal with severe PD symptoms. For separate behavioral categories, scoring of the upper limb and the lower limb were added together. Additionally, action or intention tremors and resting tremors were added together.
# Two experienced observers blindly evaluated dyskinesia symptoms of the monkeys three days per week throughout the observation periods. Dyskinesia score criteria were: 0: Absent. 1: Mild, fleeting, present <30% of the observation period. 2: Moderate, not interfering with normal activity, present >30% of the observation period. 3: Marked, at times interfering with normal activity; present <70% of the observation period.4: Severe, continuous, replacing normal activity, present >70% of the observation.
# For parkinsonian monkeys, DCZ (Deschloroclozapine, 0.3 mg/kg, MCE) was administered via intramuscular injection. After DCZ was successfully infused, monkeys were immediately transferred to the observation cage for video recording. […] For long-term DCZ treatment, parkinsonian monkeys were given DCZ at a dose of 0.3 mg/kg every other day via intramuscular injection. […] One month of washout was allowed before administration of DCZ for a 2 months treatment.
# A grasp-to-eat/hand-to-mouth movement test was conducted as an indication of motor skills in monkeys. Monkeys were first trained to sit in a primate chair with the healthy hand restricted. Monkeys were then trained to grasp food (a piece of apple, ˜1 cm3) using the MPP+-affected hand from the experimenter. The task contained three blocks, with 20-minute intervals between different blocks. Each block included ten continuous trials. Trials were defined as successful when monkeys were able to bring food to their mouth within a minute.
# During video recording, a top (x/y) and a side (x/z) camera were used to record the observation cage. The VigiePrimate system (Viewpoint) was used to analyze the subject's activity and extract movement data from the recorded videos. The tracking data were synchronously sampled at 25 Hz for both top view and side view, and then combined to generate one dataset representing the 3D space. The tracking data were normalized to 0-100 cm for all x-, y-, and z-axes, of which x represents right to left, y represents front to back, and z represents bottom to top.
# Customized surface EMG electrodes were used for EMG recordings.
# [5] = test system: striatal D1 MSNs (striatonigral projection neurons); test: Retrograde labeling of striatonigral projection neurons after AAV injection into the SNr; type: in vivo, mice; conditions: for Mean: Table 2, AAVs with capsid and promoter, labeled cells per striatal hemisphere after nigral delivery; for retrograde labeling/infectivity of striatal projection neurons (D1 MSNs), in words: injection into the SNr; for labeled striatonigral projection neurons (FIG. 2C): mean±SEM, n=3 mice, viruses injected into the SNr; for times more EYFP positive/labeled MSNs compared to rAAV2-retro: nigral delivery, hSyn-EYFP
# Protocol: To improve efficiency, multiple rounds of mutations of AAV capsids were performed on a series of different serotypes. Mutations were introduced at three sites in the AAV8 capsid protein to make AAV8R, including N385D, insertion of […] (SEQ ID NO: 31) at position 588, and TS711-712IN. Two additional mutations of V183E and N411S were incorporated into the AAV8R12 capsid protein (FIG. 1A). The labeling pattern of the AAV8R12 capsid and G88 promoter combination was determined.
# First, the polypeptide fragment RGNLADODYTKTARQAATAD (SEQ ID NO.: 31) was inserted at the N587-R588 position; two other point mutations of the AAV2 Cap protein were made to develop rAAV2-retro. Similar mutations were then placed at equivalent positions for four other AAV serotypes (FIGS. 1A-IC and 25, TABLE 1), AAV1/5/6/8 (FIG. 1A). […] When administered into the SNr, 4.86±0.22 times EYFP positive MSNs in mice infected by AAV8R-hSyn-EYFP were observed as compared to those infected by rAAV2-retro-hSyn-EYFP (FIG. 2A-2C).
# Baseline infectivity of rAAV2-retro was approximately 0.2±0.03×10^4 cells per striatal hemisphere (using a hSyn promoter) (TABLE 2). […] Compared to the current standard retrograde AAV, rAAV2-retro, AAV8R12 labeled 7.72±0.78-times more MSNs after nigral delivery (FIG. 2B-2C, TABLE 1). […] The AAV8R12 was generated using the AAV8R plasmid as a template.
# Mice were anesthetized with sodium pentobarbital (Nembutal; 80 mg/kg, i.p.), and then placed into a stereotaxic device (KOPF). Eye cream was applied on both corneas to avoid dehydration. The skull above the targeted areas was thinned with a dental drill and carefully removed. Injections were conducted with a 10 μL syringe connected to a 33-Gauge needle (Neuros; Hamilton), using a microsyringe pump (Legato 130, KD Scientific). A total volume of 200 nL virus was injected into the SNr at a speed of 20 nL/min. The coordinates for the SNr were 3.4 mm posterior, 1.3 mm lateral, 4.8 mm ventral to the bregma.
# HEK293T cells (ATCC) were co-transfected by calcium phosphate with an AAV vector plasmid, an AAV Rep-Cap plasmid (rAAV2-retro, AAV1R, AAV5R, AAV6R, AAV8R, and AAV8R1-14), and the pAdDeltaF6 helper plasmid (Addgene, 112867) harboring the adenoviral genes required for the AAV life cycle. HEK293T cells grown in 15 cm cell culture dishes were co-transfected with the mixture of three plasmids (1:1:1) at 80% confluency. 48-72 hours post-transfection, cells were collected and resuspended in a buffer containing 150 mM NaCl and 100 mM Tris-HCl (pH 8.0). Cells were lysed by repeated freeze-thaw cycles in liquid nitrogen and a 37° C. water bath. AAV particles were purified and concentrated using Millipore Amicon 100K columns (Merck Millipore, UFC910008). Encapsidated viral DNA was quantitated by qPCR (Thermo Fisher) with primers recognizing the viral WPRE and/or ITR sequences following denaturation of the AAV particles using Proteinase K. Titers were calculated as genome copies per milliliter.
# Images were acquired using a confocal microscope (Carl Zeiss, LSM880) and an Axiolmager.Z1 microscope with apotome (Carl Zeiss). Brain structures were identified microscopically and in digital photos using a mouse brain atlas. To analyze the number of EYFP+ cells in the striatum, slices from rostral to caudal striatum were used. Every sixth section was analyzed, and numbers of EYFP+ cells were multiplied by six to acquire the approximate total number and mean number of cells per animal. Images were processed using ImageJ (NIH, USA), and final quantifications were independently performed manually by two blinded experimenters.
# [6] = test system: MSNs in nucleus accumbens; test: Retrograde labeling of accumbal MSNs after delivery into ventral pallidum or lateral hypothalamus; type: in vivo, mice
# [7] = caudate/putamen, CNO 36 cells, DCZ 31 cells
molecule,measurement,setting,value
"CN1CCN(C2=Nc3ccccc3Nc3ccccc32)CC1 [DCZ, deschloroclozapine]","neuronal activity in MPP+ lesioned macaques, in words",rM3Ds; anesthetized animals,induced an increase in neuronal activity
same,cells activated (FIG. 15G),rM3Ds; [7],41.9%
same,cells inactivated (FIG. 15G),rM3Ds; [7],9.7%
same,cells unchanged (FIG. 15G),rM3Ds; [7],48.4%
same,motor-related behaviors in naïve monkeys,[1],did not alter motor-related behaviors; also recorded: doesn't alter motor-related behaviors
same,DCZ level in cerebrospinal fluid,[2],no detectable levels
same,blood levels of common liver- and kidney-related factors,[3],remained stable
same,motor skills (hand to mouth movement),[4]; DCZ treatment,significant recovery of motor skills; also recorded: partially restored
same,spontaneous movement/motor deficits in an observation cage,[4]; DCZ treatment,increase in spontaneous movement; also recorded: successfully rescue motor deficits
same,tremor (EMG),[4]; DCZ treatment,great reduced or even eliminated; also recorded: removed
same,duration of effect,[4]; FIG. 18C,over 24 hr
same,alleviation of parkinsonian symptoms over long-term treatment,[4]; continuous DCZ,consistent during an 8-month continuous treatment
same,speed of reversal of symptoms,[4]; initial phase of drug administration,faster reversal of symptoms than levodopa; also recorded: faster than L-Dopa
same,dyskinesia-like behaviors (dyskinesia score),[4]; long-term treatment,dyskinesia-free; also recorded: did not elicit dyskinesia-like behaviors; also recorded: dyskinesia free
same,alleviating symptoms after drug administration,[4]; single dose after steady-state efficacy,at least 24 hours
B1,Mean,[5],10092
same,"retrograde labeling/infectivity of striatal projection neurons (D1 MSNs), in words",[5],acquired improved retrograde infectivity
same,labeled striatonigral projection neurons (FIG. 2C),[5],10092±463.9
same,times more EYFP positive/labeled MSNs compared to rAAV2-retro,[5],4.86±0.22 times
same,labeling of MSNs in nucleus accumbens,[6],robust labeling
B2,Labeling Efficiency in Striatonigral Pathway,"[5]; AAV8R capsid mutants, numbers of labeled neurons per animal",+++ (10 k-25 k)
same,Mean,[5],16026
same,"retrograde labeling/infectivity of striatal projection neurons (D1 MSNs), in words",[5],mostly improved efficiency
same,labeled striatonigral projection neurons (FIG. 2C),[5],16026±1654
same,times more EYFP positive/labeled MSNs compared to rAAV2-retro,[5],7.72±0.78 times
same,labeling of MSNs in nucleus accumbens,[6],robust labeling

# Source: patent publication US20250382588A1, “CHIMERIC AAV AND USES THEREOF” (priority 2023, published 2025)
